One data set has as its target T1, Full Length hPPARα (Homo sapiens, UniProt Q07869).
T1 construct: Full Length; expressed in transfected cells; host or cells: Cos cells
T1 sequence (Q07869 1-468): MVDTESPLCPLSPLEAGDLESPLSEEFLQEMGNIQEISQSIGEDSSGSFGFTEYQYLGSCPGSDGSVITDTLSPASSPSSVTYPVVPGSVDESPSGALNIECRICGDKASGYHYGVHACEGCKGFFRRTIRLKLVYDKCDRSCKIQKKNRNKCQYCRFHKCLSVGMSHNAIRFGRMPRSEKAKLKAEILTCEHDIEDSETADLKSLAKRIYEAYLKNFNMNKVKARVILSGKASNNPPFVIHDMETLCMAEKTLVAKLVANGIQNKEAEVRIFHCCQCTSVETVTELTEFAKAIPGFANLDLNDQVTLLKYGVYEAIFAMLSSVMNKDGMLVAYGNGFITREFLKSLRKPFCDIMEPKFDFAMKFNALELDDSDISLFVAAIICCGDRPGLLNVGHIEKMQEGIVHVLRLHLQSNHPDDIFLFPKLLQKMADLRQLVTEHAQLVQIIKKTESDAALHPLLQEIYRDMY
Kind of data set: Full length hPPARα transfection assay. The format is cell-based. To be noted: full length receptor; read-out: Full Length hPPAR α EC50 (scaled number). In short, it runs like this: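 Transiently transfected Cos cells (PEI, 3 h) with receptor expression and luciferase reporter plasmids plus β-galactosidase normalisation control; after replating, cells exposed 24 h to increasing compound concentrations in DMEM/0.2% FCS. Luciferase normalised to β-galactosidase; EC50 estimated from curves, reported as 1–5 score scale; ≥3 experiments.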

For the next data set, the target named is T2, Full Length hPPARγ (Homo sapiens, UniProt P37231).
T2 construct: Full Length; expressed in transfected cells; host or cells: Cos cells
T2 sequence (P37231 1-505): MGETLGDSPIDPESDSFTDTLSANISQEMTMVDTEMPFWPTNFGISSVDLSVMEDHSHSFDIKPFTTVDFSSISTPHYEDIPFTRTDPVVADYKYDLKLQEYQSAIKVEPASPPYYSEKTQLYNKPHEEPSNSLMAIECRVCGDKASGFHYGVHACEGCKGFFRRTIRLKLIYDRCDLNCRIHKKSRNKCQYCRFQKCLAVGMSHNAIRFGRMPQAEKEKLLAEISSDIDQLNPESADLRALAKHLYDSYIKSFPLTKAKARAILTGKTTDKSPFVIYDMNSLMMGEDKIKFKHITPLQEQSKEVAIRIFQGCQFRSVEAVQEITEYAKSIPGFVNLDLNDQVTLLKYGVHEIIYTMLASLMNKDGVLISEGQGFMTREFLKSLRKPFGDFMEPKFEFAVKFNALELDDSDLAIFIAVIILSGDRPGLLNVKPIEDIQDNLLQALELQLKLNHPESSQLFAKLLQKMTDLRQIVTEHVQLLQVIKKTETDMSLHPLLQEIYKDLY
Briefly: Full length hPPARγ transfection assay. The following applies: full length receptor; scale 1-5; read-out: Full Length hPPAR γ EC50 (scaled number). The format is cell-based. As for the experimental part:
Transient transfection assays. Cos cells were seeded in 60-mm dishes at a density of 5.5×10^5 cells/dish in Dulbecco's modified Eagle's medium (DMEM) supplemented with 10% fetal calf serum (FCS) and incubated at 37° C. for 24 hours before transfection. Cells were transfected in Opti-MEM (Gibco; Invitrogen, Carlsbad, Calif.) without FCS for 3 hours at 37° C., using polyethylenimine, with reporter and expression plasmids. The plasmid pBluescript (Stratagene, La Jolla, Calif.) was used as carrier DNA to set the final amount of DNA to 5.5 μg/dish. The pCMV-b-galactosidase expression plasmid was cotransfected as a control for transfection efficiency. Transfection was stopped by the addition of DMEM supplemented with 10% FCS, and cells were then incubated at 37° C. After 16 hours, cells were trypsinized and seeded in 96-well plates at the density of 2×10^4 cells/well and incubated for 6 hours in 10% FCS-containing DMEM. Cells were then incubated for 24 hours in DMEM containing 0.2% FCS and increasing concentrations of the compound tested or vehicle (DMSO). At the end of the experiment, cells were washed once with ice-cold PBS, lysed and the luciferase and b-galactosidase assays were performed in a luminometer and spectrophotomer. Transfection efficiencies were normalized with the b-galactosidase activity assay. Half-maximal effective concentration (EC50) was estimated using Prism software (GraphPad). All transfection experiments were performed at least three times.
In the following tables, proprietary compound EC50 values for hPPAR α, β, δ and γ are shown. The EC50 value is the concentration of a drug that induces a response halfway between the baseline and maximum, and is commonly used as a measure of drug potency. EC50 values are reported on a scale of 1 through 5, wherein the value scale is defined for each receptor as follows: […]

A short description of data set [1]: Metabolism studies using human liver microsomal preparations. To be noted: for HLMs Predominant Enzyme: comparison of half life with and without NADPH: Esterase, CYP or Mixed; for half-life: pH 7.4, pooled human liver microsomes, with NADPH (CYP system active), 37° C., read-out: HLMs t1/2. The format is in vitro ADME. In short, it runs like this: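 Pooled human liver microsomes in 50 mM Tris pH 7.4 with 5 mM MgCl2 at 37° C, with or without NADPH-generating system; buffer-only control for stability. Parent loss and acid metabolite formation followed by LC-MS/MS over 0–90 min. Half-life reported with NADPH; comparison with (−)NADPH assigns predominant enzyme.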

4 compounds from patent US20100184815A1 (priority 2008, published 2010) can be followed below.

In the case of `CCCCCCCCn1c(COC(=O)c2ccc(OC(C)(C)C(=O)O)c(OC)c2)nn(Cc2ccc(C)cc2)c1=O` [Compound 186, 2-(2-methoxy-4-(((1-(4-methylbenzyl)-4-octyl-5-oxo-4,5-dihydro-1H-1,2,4-triazol-3-yl)methoxy)carbonyl)phenoxy)-2-methylpropanoic acid], the EC50 at Full Length hPPARα lay in the range of 51 to 200 nM. Also, the EC50 at Full Length hPPARγ fell in the range of 51 to 200 nM. For the same compound, in data set [1], the “HLMs Predominant Enzyme” value was “CYP” and the half-life is 42 min.

With `CCCCCCn1c(COC(=O)c2ccc(SC(C)(C)C(=O)O)cc2)nn(Cc2ccc(C(C)(C)C)cc2)c1=O` [Compound 187, 2-(4-(((1-(4-tert-butylbenzyl)-4-hexyl-5-oxo-4,5-dihydro-1H-1,2,4-triazol-3-yl)methoxy)carbonyl)phenylthio)-2-methylpropanoic acid], on Full Length hPPARα, the 50% effective concentration (EC50) is under 1 nM. Besides, the EC50 at Full Length hPPARγ was in the range of 51 to 200 nM. For the same compound, in data set [1], the “HLMs Predominant Enzyme” value was “Mixed” and the half-life was determined as 38 min.

Take `CCCCCCCn1c(COC(=O)c2ccc(SC(C)(C)C(=O)O)cc2)nn(Cc2ccc(C(C)(C)C)cc2)c1=O` [Compound 189, 2-(4-(((1-(4-tert-butylbenzyl)-4-heptyl-5-oxo-4,5-dihydro-1H-1,2,4-triazol-3-yl)methoxy)carbonyl)phenylthio)-2-methylpropanoic acid]: the EC50 at Full Length hPPARα is under 1 nM; at Full Length hPPARγ, 51 to 200 nM. Besides, the “HLMs Predominant Enzyme” value in data set [1] is recorded as “CYP”. Further, the half-life in data set [1] was found to be 90 min.

For `CCCCCCCn1c(COC(=O)c2ccc(SC(C)(C)C(=O)O)cc2)nn(Cc2ccc(C)cc2)c1=O` [Compound 191, 2-(4-(((4-heptyl-1-(4-methylbenzyl)-5-oxo-4,5-dihydro-1H-1,2,4-triazol-3-yl)methoxy)carbonyl)phenylthio)-2-methylpropanoic acid], the concentration for a half-maximal effect (EC50) on Full Length hPPARα is under 1 nM. For the same compound, the EC50 at Full Length hPPARγ was 51 to 200 nM. In data set [1], the “HLMs Predominant Enzyme” value is recorded as “Esterase” and the half-life is 15 min.
